Calls of active or inactive are those of the source. The rule behind the calls is not given here.
How the values were obtained:
[1] = target: T1, Nuclear receptor ROR-gamma (Homo sapiens, UniProt P51449); assay: Inhibition of Gal4-fused RORgamma LBD (unknown origin) expressed in HEK293T cells incubated for 48 hrs by luciferase based assay; format: cell-based
T1 sequence (P51449 whole entry): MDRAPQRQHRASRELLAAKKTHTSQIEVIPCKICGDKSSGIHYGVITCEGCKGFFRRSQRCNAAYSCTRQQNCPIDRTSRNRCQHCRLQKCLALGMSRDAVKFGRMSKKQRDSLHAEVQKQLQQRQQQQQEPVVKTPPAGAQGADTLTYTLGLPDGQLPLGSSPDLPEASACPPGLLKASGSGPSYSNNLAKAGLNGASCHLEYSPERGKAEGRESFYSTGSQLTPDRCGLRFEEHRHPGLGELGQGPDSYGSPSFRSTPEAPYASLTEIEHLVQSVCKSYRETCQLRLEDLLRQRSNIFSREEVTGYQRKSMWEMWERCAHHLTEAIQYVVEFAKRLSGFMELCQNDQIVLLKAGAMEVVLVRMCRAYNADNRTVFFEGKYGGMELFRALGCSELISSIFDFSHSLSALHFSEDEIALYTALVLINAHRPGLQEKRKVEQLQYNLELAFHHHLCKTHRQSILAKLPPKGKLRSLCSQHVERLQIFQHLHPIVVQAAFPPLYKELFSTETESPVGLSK

[2] = test system: CWR22R; assay: Antiproliferative activity against human 22Rv1 cells incubated for 4 days by CCK8 assay; details: 22Rv1, 96 h
[3] = test system: LNCaP C4-2B; assay: Antiproliferative activity against human LNCaP C4-2B cells incubated for 4 days by CCK8 assay; details: 96 h
[4] = Metabolic stability in mouse liver microsomes assessed as half life at 0.1 uM preincubated for 10 mins followed by NADPH addition and measured upto 60 mins by LC-MS/MS analysis; format: ADME, Microsome; details: time < 70 min
[5] = test system: LNCaP; assay: Antiproliferative activity against human LNCaP cells incubated for 4 days by CCK8 assay; details: 96 h
[6] = test system: CWR22R; assay: Downregulation of AR expression in human 22Rv1 cells incubated for 48 hrs by qRT-PCR analysis; format: functional, cell-based; details: dose 1.25-5 µM
[7] = Half life in ICR mouse at 3 mg/kg, iv measured upto 24 hrs by LC-MS/MS analysis; format: ADME, organism-based; details: in vivo
[8] = Cmax in ICR mouse at 3 mg/kg, iv measured upto 24 hrs by LC-MS/MS analysis; format: ADME, organism-based; details: in vivo
[9] = test system: CWR22R; assay: Antitumor activity against human 22Rv1 cells xenografted in NOD/SCID mouse assessed as tumor growth inhibition at 10 mg/kg, ip administered five times a week for 2 weeks and measured two times per week; format: functional; details: 22Rv1, 336 h, read-out: TGI
[10] = Clearance in ICR mouse at 3 mg/kg, iv measured upto 24 hrs by LC-MS/MS analysis; format: ADME, organism-based; details: in vivo
[11] = test system: CWR22R; assay: Downregulation of KLK2 mRNA expression in human 22Rv1 cells at 1.25 to 5 uM incubated for 48 hrs by qRT-PCR analysis; format: functional, cell-based; details: dose 1.25-5 µM
[12] = test system: LNCaP C4-2B; assay: Downregulation of KLK2 mRNA expression in human LNCaP C4-2B cells at 1.25 to 5 uM incubated for 48 hrs by qRT-PCR analysis; format: functional, cell-based; details: dose 1.25-5 µM
[13] = Toxicity in NOD/SCID mouse assessed as tolerability at 5 to 10 mg/kg, ip administered five times a week for 2 weeks and measured two times per week; format: organism-based; details: in vivo, 336 h, dose 5-10 mg/kg
[14] = test system: CWR22R; assay: Downregulation of KLK3 mRNA expression in human 22Rv1 cells at 1.25 to 5 uM incubated for 48 hrs by qRT-PCR analysis; format: functional, cell-based; details: dose 1.25-5 µM
[15] = Half life in ICR mouse at 10 mg/kg, po measured upto 24 hrs by LC-MS/MS analysis; format: ADME, organism-based; details: in vivo
[16] = target: T2, Nuclear receptor ROR-gamma (Homo sapiens) (UniProt P51449); assay: Covalent binding affinity to RORgamma (unknown origin) expressed in Escherichia coli assessed as covalent adduct formation incubated for 4 hrs by mass spectrometric analysis
T2 sequence (whole entry): T1 sequence (P51449 whole entry)

[17] = test system: CWR22R; assay: Downregulation of AR-V7 expression in human 22Rv1 cells incubated for 48 hrs by qRT-PCR analysis; format: functional, cell-based; details: dose 1.25-5 µM
[18] = test system: CWR22R; assay: Inhibition of colony formation in human 22Rv1 cells compound addition at every 3 days and measured after 14 days by crystal violet staining based assay; format: functional, cell-based; details: dose 1.25-5 µM, time 14.0 day
[19] = test system: LNCaP C4-2B; assay: Downregulation of AR expression in human LNCaP C4-2B cells incubated for 24 to 72 hrs by Western blot analysis; format: functional, cell-based; details: dose 1.25-5 µM, time 24-72 hrs
[20] = AUClast in ICR mouse at 3 mg/kg, iv measured upto 24 hrs by LC-MS/MS analysis; format: ADME, organism-based; details: in vivo
[21] = Cmax in ICR mouse at 10 mg/kg, po measured upto 24 hrs by LC-MS/MS analysis; format: ADME, organism-based; details: in vivo
[22] = AUClast in ICR mouse at 10 mg/kg, po measured upto 24 hrs by LC-MS/MS analysis; format: ADME, organism-based; details: in vivo
[23] = test system: LNCaP C4-2B; assay: Induction of apoptosis in human LNCaP C4-2B cells assessed as increase in caspase-7 activity at 1.25 to 5 uM by Western blot analysis; format: functional, cell-based; details: dose 1.25-5 µM
[24] = test system: LNCaP C4-2B; assay: Downregulation of AR expression in human LNCaP C4-2B cells at 1.25 to 5 uM incubated for 48 hrs by qRT-PCR analysis; format: functional, cell-based; details: dose 1.25-5 µM
[25] = test system: LNCaP C4-2B; assay: Induction of apoptosis in human LNCaP C4-2B cells assessed as increase in caspase-3 activity at 1.25 to 5 uM by Western blot analysis; format: functional, cell-based; details: dose 1.25-5 µM
[26] = test system: CWR22R; assay: Antitumor activity against human 22Rv1 cells xenografted in ip dosed NOD/SCID mouse assessed as tumor growth inhibition administered five times a week for 2 weeks and measured two times per week; format: functional, organism-based; details: dose 5-10 mg/kg
[27] = AUCinfinity in ICR mouse at 10 mg/kg, po measured upto 24 hrs by LC-MS/MS analysis; format: ADME, organism-based; details: in vivo
[28] = test system: LNCaP C4-2B; assay: Downregulation of NKX3-1 mRNA expression in human LNCaP C4-2B cells at 1.25 to 5 uM incubated for 48 hrs by qRT-PCR analysis; format: functional, cell-based; details: dose 1.25-5 µM
[29] = test system: LNCaP C4-2B; assay: Inhibition of colony formation in human LNCaP C4-2B cells compound addition at every 3 days and measured after 14 days by crystal violet staining based assay; format: functional, cell-based; details: dose 1.25-5 µM, time 14.0 day
[30] = test system: CWR22R; assay: Antitumor activity against human 22Rv1 cells xenografted in NOD/SCID mouse assessed as tumor growth inhibition at 5 mg/kg, ip administered five times a week for 2 weeks and measured two times per week; format: functional; details: 22Rv1, 336 h, read-out: TGI
[31] = test system: LNCaP C4-2B; assay: Downregulation of KLK3 mRNA expression in human LNCaP C4-2B cells at 1.25 to 5 uM incubated for 48 hrs by qRT-PCR analysis; format: functional, cell-based; details: dose 1.25-5 µM
[32] = AUCinfinity in ICR mouse at 3 mg/kg, iv measured upto 24 hrs by LC-MS/MS analysis; format: ADME, organism-based; details: in vivo
[33] = test system: LNCaP C4-2B; assay: Downregulation of AR-V7 expression in human LNCaP C4-2B cells incubated for 48 hrs by qRT-PCR analysis; format: functional, cell-based; details: dose 1.25-5 µM
[34] = Oral bioavailability in ICR mouse at 10 mg/kg measured upto 24 hrs by LC-MS/MS analysis; format: ADME, organism-based; details: in vivo
[35] = test system: LNCaP C4-2B; assay: Downregulation of AR expression in human LNCaP C4-2B cells at 1.25 to 5 uM by Western blot analysis; format: functional, cell-based; details: dose 1.25-5 µM, time 24-72 hrs, TDE = time-dependent effect
[36] = test system: CWR22R; assay: Downregulation of AR-V7 expression in human 22Rv1 cells at 1.25 to 5 uM by Western blot analysis; format: functional, cell-based; details: dose 1.25-5 µM, time 24-72 hrs, TDE = time-dependent effect
[37] = test system: LNCaP C4-2B; assay: Downregulation of AR-V7 expression in human LNCaP C4-2B cells incubated for 24 to 72 hrs by Western blot analysis; format: functional, cell-based; details: dose 1.25-5 µM, time 24-72 hrs
[38] = test system: CWR22R; assay: Downregulation of AR expression in human 22Rv1 cells incubated for 24 to 72 hrs by Western blot analysis; format: functional, cell-based; details: dose 1.25-5 µM, time 24-72 hrs
[39] = test system: CWR22R; assay: Downregulation of NKX3-1 mRNA expression in human 22Rv1 cells at 1.25 to 5 uM incubated for 48 hrs by qRT-PCR analysis; format: functional, cell-based; details: dose 1.25-5 µM
[40] = test system: CWR22R; assay: Induction of apoptosis in human 22Rv1 cells assessed as increase in caspase-7 activity at 1.25 to 5 uM by Western blot analysis; format: functional, cell-based; details: dose 1.25-5 µM
[41] = test system: CWR22R; assay: Downregulation of AR-V7 expression in human 22Rv1 cells incubated for 24 to 72 hrs by Western blot analysis; format: functional, cell-based; details: dose 1.25-5 µM, time 24-72 hrs
[42] = test system: CWR22R; assay: Downregulation of AR expression in human 22Rv1 cells at 1.25 to 5 uM by Western blot analysis; format: functional, cell-based; details: dose 1.25-5 µM, time 24-72 hrs, TDE = time-dependent effect
[43] = test system: LNCaP C4-2B; assay: Downregulation of AR-V7 expression in human LNCaP C4-2B cells at 1.25 to 5 uM by Western blot analysis; format: functional, cell-based; details: dose 1.25-5 µM, TDE = time-dependent effect
[44] = Toxicity in NOD/SCID mouse assessed as change in body weight at 5 to 10 mg/kg, ip administered five times a week for 2 weeks and measured two times per week; format: organism-based; details: in vivo, 336 h, dose 5-10 mg/kg
[45] = Volume of distribution at steady state in ICR mouse at 3 mg/kg, iv measured upto 24 hrs by LC-MS/MS analysis; format: ADME, organism-based; details: in vivo, read-out: Vdss
[46] = test system: CWR22R; assay: Induction of apoptosis in human 22Rv1 cells assessed as increase in caspase-3 activity at 1.25 to 5 uM by Western blot analysis; format: functional, cell-based; details: dose 1.25-5 µM

## C=CC(=O)Nc1ccccc1-c1ccc(NS(=O)(=O)Cc2ccc([N+](=O)[O-])cc2)cc1C
[1]
  IC50: 6610 nM

## C=CC(=O)Nc1ccccc1-c1ccc(NC(=O)Cc2ccc(S(=O)(=O)CC)cc2)cc1F
[2]
  IC50: 1440 nM
[3]
  IC50: 730 nM
[4]
  half-life at 0.1 µM: 8.17 min
[5]
  IC50: 530 nM
[1]
  IC50: 1100 nM

## C/C=C/C(=O)Nc1ccccc1-c1ccc(NC(=O)Cc2ccc(S(=O)(=O)CC)cc2)cc1C
[1]
  IC50: 1630 nM

## C=CC(=O)Nc1ccccc1-c1ccc(NC(=O)Cc2ccc(S(=O)(=O)CC)cc2)cc1Cl
[6]
  Activity: Dose-Dependent Effect
[7]
  half-life: 13.2 min
[8]
  Cmax: 2000 ng/mL
[9]
  inhibition in vivo at 10 mg/kg: 62.6%
[2]
  IC50: 770 nM
[10]
  clearance: 86.8 mL/min/kg
[11]
  Activity: Active
[12]
  Activity: Active
[13]
  Activity: Non-Toxic
[14]
  Activity: Active
[15]
  half-life: 36.6 min
[16]
  Activity: Active
[17]
  Activity: Dose-Dependent Effect
[18]
  inhibition: Dose-Dependent Effect
[19]
  Activity: Dose-Dependent Effect
[20]
  AUC(0-t) at 24 h: 584 ng·h/mL
[21]
  Cmax: 270 ng/mL
[3]
  IC50: 470 nM
[22]
  AUC(0-t) at 24 h: 248 ng·h/mL
[23]
  Activity: Active
[24]
  Activity: Dose-Dependent Effect
[4]
  half-life at 0.1 µM: 21.3 min
[25]
  Activity: Active
[26]
  Activity: Dose-Dependent Effect
[27]
  AUC(0-inf): 251 ng·h/mL
[28]
  Activity: Active
[29]
  inhibition: Dose-Dependent Effect
[30]
  inhibition in vivo at 5 mg/kg: 41.9%
[31]
  Activity: Active
[32]
  AUC(0-inf): 585 ng·h/mL
[33]
  Activity: Dose-Dependent Effect
[5]
  IC50: 630 nM
[1]
  IC50: 210 nM
[34]
  bioavailability: 12.7%
[35]
  Activity: Tde
[36]
  Activity: Tde
[37]
  Activity: Dose-Dependent Effect
[38]
  Activity: Dose-Dependent Effect
[39]
  Activity: Active
[40]
  Activity: Active
[41]
  Activity: Dose-Dependent Effect
[42]
  Activity: Tde
[43]
  Activity: Tde
[44]
  Activity: Non-Toxic
[45]
  Vd: 0.75 L/kg
[46]
  Activity: Active

## C=CC(=O)Nc1ccccc1-c1c(Cl)cc(NC(=O)Cc2ccc(S(=O)(=O)CC)cc2)cc1Cl
[2]
  IC50: 920 nM
[3]
  IC50: 290 nM
[4]
  half-life at 0.1 µM: 2.07 min
[5]
  IC50: 700 nM
[1]
  IC50: 50 nM

## C=CC(=O)Nc1ccccc1-c1ccc(NC(=O)c2ccc(S(C)(=O)=O)cc2)cc1C
[1]
  IC50: 5710 nM

— ChEMBL document CHEMBL5537185, “Discovery of the First-in-Class RORγ Covalent Inhibitors for Treatment of Castration-Resistant Prostate Cancer” (J Med Chem, 2024)
